Source: PMC12489660, “Multitargeted Caffeic Acid Derivatives Inhibit Cardiac RyR2- and NaV1.5- Channels but Stimulate SERCA2a Pump Activity” (ACS Omega, 2025)
Values joined by “and” are separate entries in the source; they are usually repeats but may differ in a detail not shown here. Equal values may be shown once.

What was measured:
[1] = PermeaPad membrane permeability; format: in vitro ADME; conditions: not told, room temperature, class low/medium in parentheses, read-out: P e (permeability rate)
From the text: We determined permeability rates (P e ), which are a measure of how fast a compound can cross a membrane, using cell-free transport models (PermeaPad, innoME GmbH) The CA derivatives have medium to low permeability rates in the range 1.0–24.0 nm/s (Table ). Similar to S36, despite poor permeability, compounds 2–4, 8, and 9 acted on live RyR2-HEK-293 R-CEPIA1er cells inhibiting RyR2. […] Since PermeaPad is an artificial model that primarily reflects passive diffusion, it is likely that additional mechanisms contribute to the crossing of cell membranes by these compounds.
Membrane permeability was assessed using PermeaPad Plate according to the manufacturing procedure (innoME GmbH, Espelkamp, Germany). Briefly, 200 μL (V A) water was added into acceptor plate. 200 μL (V D) of 100–500 μM test compound in water was added directly to the well membranes of the donor plate. The donor plate contains a biomimetic membrane for simulating passive mass transfer through different barriers in the body. Then the donor plate was placed into the acceptor plate wells and incubated at room temperature for 24 h in dark. To determine peak absorbance of test compounds, absorbance spectra of acceptor solutions and initial solutions for each test compound were read out. The Permeability Rate (P e) was calculated using the formula:
P e = C × −ln (1 – ODA/ODB) cm/s, where OD A is the absorbance of acceptor solution, OD B is the absorbance of the standard solution; if the compound is able to permeabilize the membrane and fully reach equilibrium, 250 μM will be the final concentration of solution in the donor and acceptor wells. The coefficient C was calculated using the formula: C=VD×VA/(VD+VA)×Area×time where V A–acceptor volume (cm^3), V D–donor volume (cm^3), membrane area 0.24 cm^2, time is 86,400 s.

[2] = target: T1, SERCA2b (Homo sapiens, UniProt P16615); test: NADH fluorescence-coupled ATPase assay on microsomal membranes isolated from HEK-293T cells; format: biochemical; conditions: 10 µM, HEK-293T microsomal membranes
T1 construct: endogenous in cells; host or cells: HEK-293T cells, microsomal membranes
From the text: HL-1 cells are known to express cardiac SERCA2a. […] HL-1 cells are in fact derived from mouse atrial cardiomyocytes that coexpress SERCA2a and SERCA2b. , We assumed that such behavior of compounds 1 and 5 is associated with their selective action on additional SERCA2 isoform present in these cells.

[3] = target: human NaV1.5 (Homo sapiens, UniProt Q14524); test: FLIPR membrane potential assay on CHO NaV1.5 Duo cells (veratridine-induced); format: cell-based; conditions: for NaV1.5 activity in CHO cells: 10 μM, percentage from the control sample (100%), mean ± SEM; for effect on NaV1.5 activity (in words): concentration range 0.1 to 100 μM
[4] = target: T2, SERCA2a (Mus musculus, UniProt O55143); test: NADH-coupled ATPase assay on microsomal membrane vesicles from mouse heart ventricles (mouse SER); format: biochemical; conditions: for effect on SERCA2a ATPase activity (in words) / ATPase activity of SERCA2a in mouse SER: 10 μM; for effect on SERCA2a ATPase activity (in words): mouse SER; for ATPase activity of SERCA2a in mouse SER: percentage from the control sample (100%), mean ± SEM; for EC50: kinetic rate of NADH–NAD+ conversion, Figure S10: 200 µM free Ca2+
T2 construct: from tissue; host or cells: adult mouse heart ventricles, microsomal membrane vesicles
Experimental: To this end, we tracked the rate of nicotinamide adenine dinucleotide (NADH) oxidation linked to ATP hydrolysis by observing changes in NADH fluorescence over time. This was done after addition of ATP to solutions containing microsomal membranes enriched with SER vesicles isolated from adult mouse heart ventricles (mouse SER). The NADH fluorescence decrease was recorded on a FlexStation 3 Multimode Microplate Reader. […] We detected the highest increase in ATPase activity (up to 118%), when the vesicles were treated with borate complex 11–13 (Table ). We tested compounds 11–13 in the NADH assay buffer to see whether these compounds could contribute to the rate of NADH fluorescence reduction (Figures S7–S9). No significant deviations were found in the rate of NADH consumption compared to the control sample (0.1 v/v% DMSO).
Isolation of Microsomal Membrane Vesicles from mouse hearts was done according to procedure described earlier. All animal procedures were performed in accordance with national and institutional regulations.
Mouse ventricular microsomes (4–5 μg of total protein) were diluted in 100 μL of the assay buffer used for measurement of SERCA activity (described below) and incubated at room temperature for 10 min prior to the experiments. The measurements of SERCA2 activity were made at 25 °C by using a NADH -coupled ATPase assay as described in Radnai et al. with slight modifications. Briefly, the assay buffer contained 60 mM MOPS, 120 mM KCl, 6 mM MgCl2, 1 mM EGTA, 5 mM NaN3, 0.5 mM phosphoenolpyruvate and 0.67 mM CaCl2, pH 7.0. Before the reaction was started by the injection of 10 μL ATP (resulting in 2 mM final concentration in the well), 5 units/mL of both lactate dehydrogenase and pyruvate kinase, 0.5 mM NADH, and 1 μM Ca^2+ ionophore A-23187 (Sigma, C-7522) were added to the diluted sample with or without the tested compound (volume −150 μL). […] The NADH fluorescence decrease was recorded each 2 s for 5 min course on a FlexStation 3 Multi-Mode Microplate Reader in 96-well glass bottom plates (MatTek Corporation; Cat. No. PBK96G-1.5-5-F). Fluorescence was evoked by 380 nm excitation wavelength and collected in a bottom-read mode at 425 nm, cutoff–470 nm, 4 flashes per read. ATP was injected at 60 s, speed–125 μL/s, pipet height–140 μL. The data were analyzed with computer software GraphPad Prism version 8.3.1 (GraphPad Software, Inc.). The difference in signal decrease with and without microsomes was taken as an indicator for the additional ATPase activity performed by SERCA2. The obtained values for maximal SERCA2 activity were normalized for total protein concentration. Maximal SERCA2 activity values are reported as percentages of control (0.1% DMSO) values. Microsomal samples that were kept on ice until usage and set to 100%.

[5] = target: SERCA2 (Mus musculus, UniProt O55143); test: Caffeine induced calcium release assay on live HL-1 cardiomyocytes; format: cell-based; conditions: for activation of SERCA2 in HL-1: 10 μM, percentage from the control sample (100%), mean ± SEM; for EC50: 2 h preincubation, 10 mM caffeine, read-out: activation of SERCA2 in HL-1, EC50 (converted);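 on all read-outs here: Read-out: caffeine-evoked peak minus basal fluorescence (ΔF Caff) of cytoplasmic FLIPR Calcium 6 dye, recorded for 1 min, compared with Tyrode's solution plus 0.1 v/v% DMSO as control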
[6] = target: T3, wild type mouse RyR2 (Mus musculus, UniProt E9Q401); test: Time-lapse [Ca2+]ER assay in HEK-293 RyR2 R-CEPIA1er cells (RyR2 activity assay); format: cell-based; conditions: 25 μM; for effect on RyR2 activity / [Ca2+]ER (in words): vs control 0.1 v/v% DMSO; for RyR2 activity: percentage from the control sample (100%), mean ± SEM;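 on all read-outs here: ER Ca2+ read as R-CEPIA1er fluorescence ratio F/F0 (F0 mean of initial 90 s, F mean of final 100 s), compared with vehicle-treated control wells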
T3 construct: expressed in transfected cells; host or cells: HEK-293 cells stably expressing WT RyR2 and R-CEPIA1er (gift of Dr. Takashi Murayama), induced with doxycycline

[7] = system: HL-1 cells; test: CytoTox-Glo Cytotoxicity Assay; format: cell-based; conditions: 24 h, concentrations up to 1 μM
Experimental: Cell viability was assessed using CytoTox-Glo Cytotoxicity Assay according to the manufacturing procedure (Promega GmbH). Briefly, HL-1 cells were cultivated for 24 h in black-walled, clear-bottom 96-well microplates (Corning) covered with fibronectin/gelatin in DMEM, containing different concentrations of the tested compound (10,000 cells/well). Luminescence of a luminogenic peptide substrate was measured before and after addition of the lysis reagent (digitonin). The viable cell contribution was determined by a subtractive method. 0.1% DMSO treated cell were taken as a control.

[8] = set-up: method as in earlier work; conditions: class low in parentheses; ref (number not given); cited from earlier work

SERCA2, sequence (O55143 1-994 limits assumed): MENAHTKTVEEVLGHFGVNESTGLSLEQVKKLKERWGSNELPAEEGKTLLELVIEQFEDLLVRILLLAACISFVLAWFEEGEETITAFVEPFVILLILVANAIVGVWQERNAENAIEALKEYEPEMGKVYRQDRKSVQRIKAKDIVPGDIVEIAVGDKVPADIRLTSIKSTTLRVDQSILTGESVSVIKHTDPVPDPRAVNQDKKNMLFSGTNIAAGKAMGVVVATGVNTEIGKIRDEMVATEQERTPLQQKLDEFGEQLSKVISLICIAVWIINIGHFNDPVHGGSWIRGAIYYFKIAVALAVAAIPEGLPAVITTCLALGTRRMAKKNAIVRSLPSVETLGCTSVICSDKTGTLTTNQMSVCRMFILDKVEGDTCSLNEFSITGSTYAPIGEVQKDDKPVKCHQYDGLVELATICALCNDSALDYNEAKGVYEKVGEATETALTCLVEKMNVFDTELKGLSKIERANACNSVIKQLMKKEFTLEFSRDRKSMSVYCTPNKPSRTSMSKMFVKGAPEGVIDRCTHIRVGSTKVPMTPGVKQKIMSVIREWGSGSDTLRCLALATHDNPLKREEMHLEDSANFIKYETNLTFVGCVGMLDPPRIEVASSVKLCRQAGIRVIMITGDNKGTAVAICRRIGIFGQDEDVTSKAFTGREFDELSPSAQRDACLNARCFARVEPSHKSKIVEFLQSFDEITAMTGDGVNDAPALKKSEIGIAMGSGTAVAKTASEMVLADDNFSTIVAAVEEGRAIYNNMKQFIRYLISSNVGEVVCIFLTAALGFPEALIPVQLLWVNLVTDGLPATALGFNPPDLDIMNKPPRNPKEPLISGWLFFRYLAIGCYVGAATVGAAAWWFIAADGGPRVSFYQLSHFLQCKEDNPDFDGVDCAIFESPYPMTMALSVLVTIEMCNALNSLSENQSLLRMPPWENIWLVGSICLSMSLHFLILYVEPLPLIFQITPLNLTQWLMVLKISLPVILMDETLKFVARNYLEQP
human NaV1.5, sequence (Q14524 1-460 limits assumed): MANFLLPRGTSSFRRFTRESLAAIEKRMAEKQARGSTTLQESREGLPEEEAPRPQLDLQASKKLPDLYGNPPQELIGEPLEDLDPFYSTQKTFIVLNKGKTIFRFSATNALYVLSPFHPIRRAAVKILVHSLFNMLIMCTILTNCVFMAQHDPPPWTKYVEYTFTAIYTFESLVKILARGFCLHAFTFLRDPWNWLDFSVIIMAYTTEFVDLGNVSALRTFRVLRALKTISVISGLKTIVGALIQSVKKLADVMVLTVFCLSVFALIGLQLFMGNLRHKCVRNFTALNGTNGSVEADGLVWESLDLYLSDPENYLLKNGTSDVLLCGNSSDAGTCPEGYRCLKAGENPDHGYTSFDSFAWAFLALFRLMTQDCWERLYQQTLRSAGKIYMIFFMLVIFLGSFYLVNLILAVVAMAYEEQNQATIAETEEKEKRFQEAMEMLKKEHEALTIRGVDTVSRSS
human NaV1.5, sequence (Q14524 661-1004 limits assumed): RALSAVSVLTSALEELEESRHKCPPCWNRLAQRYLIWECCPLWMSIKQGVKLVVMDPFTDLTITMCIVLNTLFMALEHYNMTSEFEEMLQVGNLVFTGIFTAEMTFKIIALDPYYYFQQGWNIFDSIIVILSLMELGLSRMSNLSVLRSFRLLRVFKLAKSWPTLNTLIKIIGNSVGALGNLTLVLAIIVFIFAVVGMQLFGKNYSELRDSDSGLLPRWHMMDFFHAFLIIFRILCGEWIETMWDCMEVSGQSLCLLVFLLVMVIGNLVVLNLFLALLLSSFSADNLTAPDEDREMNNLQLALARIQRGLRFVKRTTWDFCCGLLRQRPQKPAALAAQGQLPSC
human NaV1.5, sequence (Q14524 1142-2016 limits assumed): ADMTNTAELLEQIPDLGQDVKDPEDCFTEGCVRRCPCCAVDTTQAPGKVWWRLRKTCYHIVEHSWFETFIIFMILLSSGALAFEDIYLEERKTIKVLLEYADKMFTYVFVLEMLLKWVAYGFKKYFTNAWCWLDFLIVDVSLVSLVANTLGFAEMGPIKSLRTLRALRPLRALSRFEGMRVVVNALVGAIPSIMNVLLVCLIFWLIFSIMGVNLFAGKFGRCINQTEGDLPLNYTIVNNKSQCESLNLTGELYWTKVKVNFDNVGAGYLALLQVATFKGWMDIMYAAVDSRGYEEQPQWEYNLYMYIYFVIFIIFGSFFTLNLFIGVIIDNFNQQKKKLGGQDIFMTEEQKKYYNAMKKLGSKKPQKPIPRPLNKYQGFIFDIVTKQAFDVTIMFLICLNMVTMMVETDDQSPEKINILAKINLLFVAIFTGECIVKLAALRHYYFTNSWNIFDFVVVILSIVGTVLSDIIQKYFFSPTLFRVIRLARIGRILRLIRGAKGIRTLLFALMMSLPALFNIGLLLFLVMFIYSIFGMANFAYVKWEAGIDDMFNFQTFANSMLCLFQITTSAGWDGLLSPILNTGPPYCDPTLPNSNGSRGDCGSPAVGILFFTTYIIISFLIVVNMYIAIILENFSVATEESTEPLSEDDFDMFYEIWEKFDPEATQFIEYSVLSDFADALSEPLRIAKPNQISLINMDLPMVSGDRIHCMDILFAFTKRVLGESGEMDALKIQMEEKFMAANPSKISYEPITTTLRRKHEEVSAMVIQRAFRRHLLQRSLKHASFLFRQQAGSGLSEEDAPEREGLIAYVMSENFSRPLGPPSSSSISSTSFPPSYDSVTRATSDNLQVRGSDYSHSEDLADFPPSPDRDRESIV
T2 sequence (O55143 1-998 isoform O55143-2): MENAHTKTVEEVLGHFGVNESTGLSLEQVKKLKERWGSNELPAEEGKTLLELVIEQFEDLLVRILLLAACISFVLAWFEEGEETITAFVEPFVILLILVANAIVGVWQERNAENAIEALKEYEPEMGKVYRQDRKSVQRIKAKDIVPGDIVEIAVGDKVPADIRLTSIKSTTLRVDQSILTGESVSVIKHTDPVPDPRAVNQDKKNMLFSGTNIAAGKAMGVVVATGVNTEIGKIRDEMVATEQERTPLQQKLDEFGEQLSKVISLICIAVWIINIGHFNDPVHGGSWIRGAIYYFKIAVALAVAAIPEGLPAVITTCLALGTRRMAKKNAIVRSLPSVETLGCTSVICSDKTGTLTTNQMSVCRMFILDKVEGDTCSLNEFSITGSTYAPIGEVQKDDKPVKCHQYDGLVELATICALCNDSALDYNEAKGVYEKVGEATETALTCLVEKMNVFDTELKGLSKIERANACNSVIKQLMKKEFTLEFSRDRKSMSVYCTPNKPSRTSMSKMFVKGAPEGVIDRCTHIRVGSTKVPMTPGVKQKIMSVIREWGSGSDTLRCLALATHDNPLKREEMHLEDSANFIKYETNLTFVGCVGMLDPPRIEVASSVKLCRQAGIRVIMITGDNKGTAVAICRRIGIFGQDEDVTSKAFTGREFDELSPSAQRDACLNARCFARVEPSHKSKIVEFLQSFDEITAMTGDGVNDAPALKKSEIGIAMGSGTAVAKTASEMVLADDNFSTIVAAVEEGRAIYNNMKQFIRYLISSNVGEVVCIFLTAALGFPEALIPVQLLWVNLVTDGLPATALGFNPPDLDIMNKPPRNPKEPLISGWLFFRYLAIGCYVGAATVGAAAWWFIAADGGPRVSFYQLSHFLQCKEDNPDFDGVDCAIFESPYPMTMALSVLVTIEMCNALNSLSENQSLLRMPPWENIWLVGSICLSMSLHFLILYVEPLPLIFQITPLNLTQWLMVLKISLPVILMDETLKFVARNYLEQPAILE
T1 sequence (P16615 whole entry): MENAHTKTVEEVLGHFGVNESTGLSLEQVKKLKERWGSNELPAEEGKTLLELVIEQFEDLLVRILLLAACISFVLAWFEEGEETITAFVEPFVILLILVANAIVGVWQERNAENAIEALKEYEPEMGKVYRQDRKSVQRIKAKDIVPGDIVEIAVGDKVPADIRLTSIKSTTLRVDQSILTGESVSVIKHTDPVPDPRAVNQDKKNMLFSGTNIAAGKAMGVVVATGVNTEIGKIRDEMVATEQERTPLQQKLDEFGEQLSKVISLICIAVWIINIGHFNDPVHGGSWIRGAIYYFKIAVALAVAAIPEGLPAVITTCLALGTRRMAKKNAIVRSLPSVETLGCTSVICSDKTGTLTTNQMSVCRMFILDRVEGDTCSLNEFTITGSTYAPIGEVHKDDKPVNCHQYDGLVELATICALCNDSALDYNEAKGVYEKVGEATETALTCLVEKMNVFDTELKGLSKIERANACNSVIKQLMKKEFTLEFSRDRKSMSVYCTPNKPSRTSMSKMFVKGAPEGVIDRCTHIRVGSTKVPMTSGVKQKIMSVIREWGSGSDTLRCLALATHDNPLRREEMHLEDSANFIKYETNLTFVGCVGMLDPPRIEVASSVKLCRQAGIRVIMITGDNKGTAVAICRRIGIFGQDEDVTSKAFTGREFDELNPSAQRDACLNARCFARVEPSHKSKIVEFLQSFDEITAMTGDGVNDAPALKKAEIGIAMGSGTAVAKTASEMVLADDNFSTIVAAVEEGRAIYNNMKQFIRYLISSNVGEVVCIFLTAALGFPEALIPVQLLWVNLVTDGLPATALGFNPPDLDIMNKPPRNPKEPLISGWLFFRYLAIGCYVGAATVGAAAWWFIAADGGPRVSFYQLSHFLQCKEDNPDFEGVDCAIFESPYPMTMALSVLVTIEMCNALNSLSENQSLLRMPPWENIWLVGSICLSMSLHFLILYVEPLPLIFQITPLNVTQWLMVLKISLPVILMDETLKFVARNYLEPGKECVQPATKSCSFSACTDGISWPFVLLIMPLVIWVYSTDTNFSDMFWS

Compound	Papp at 24 h [1]	effect on ATPase activity (in words) [2]	NaV1.5 activity in CHO cells [3]	effect on SERCA2a ATPase activity (in words) [4]	ATPase activity of SERCA2a in mouse SER [4]	activation of SERCA2 in HL-1 [5]	EC50 ([5]; HL-1 cells)	effect on RyR2 activity / [Ca2+]ER (in words) [6]	RyR2 activity [6]	effect on NaV1.5 activity (in words) [3]	EC50 [4]	viability of HL-1 cells (in words) [7]	stimulatory effect compared to the control ([5]; HL-1 cells, from 1 to 10 μM, bell-shaped dose response, decreased at higher doses)	P e (permeability rate) [8]
COc1ccc(OCCCNC(=O)/C=C/c2ccc(O)c(O)c2)cc1 [Compound 1, (E)-3-(3,4-Dihydroxyphenyl)-N-(3-(4-methoxyphenyloxy)propyl)acrylamide]	1.8 ×10⁻⁶ cm/s	significantly increased the ATPase activity	91.8 ± 1.0%	did not evoke a significant increase in ATPase activity	98.2 ± 6.5%	157.7 ± 7.1%	15000 nM and 14900 nM	did not affect the RyR2 activity	100.8 ± 1.3%					
COc1ccc2c(c1)CN(CCCCNC(=O)/C=C/c1ccc(O)c(O)c1)CCS2 [Compound 5]	0.9 ×10⁻⁶ cm/s	significantly increased the ATPase activity	97.7 ± 1.9%	did not evoke a significant increase in ATPase activity	109.0 ± 4.0%	190.6 ± 6.6%	9000 nM and 9100 nM	did not affect the RyR2 activity	100.5 ± 0.8%					
COc1ccc2c(c1)CN(CCCCCCCCNC/C=C/c1ccc(O)c(O)c1)CCS2 [Compound 9]	0.4 ×10⁻⁶ cm/s		106.0 ± 1.0%		113.1 ± 2.1%	164.0 ± 3.0%	10900 nM	significantly increased [Ca^2+]ER	105.7 ± 0.4%	no effect on NaV1.5	41 nM and 41.2 nM	remained unchanged		
COc1ccc2c(c1)CN(CCCCCC[NH+]([BH2-]C#N)C/C=C/c1ccc(O)c(O)c1)CCS2 (centres unmarked) [Compound 12]	0.4 ×10⁻⁶ cm/s		86.2 ± 2.6%		118.2 ± 2.5%	277.8 ± 12.7%	1100 nM	significantly increased [Ca^2+]ER	103.9 ± 0.8%		2.3 nM			
COc1ccc2c(c1)CN(CCCCCCCC[NH+]([BH2-]C#N)C/C=C/c1ccc(O)c(O)c1)CCS2 (centres unmarked) [Compound 13]	0.1 ×10⁻⁶ cm/s		83.3 ± 0.9%		115.5 ± 3.7%	299.1 ± 12.8%	2500 nM	significantly increased [Ca^2+]ER	103.0 ± 0.4%		23 nM and 23.1 nM	remained unchanged	up to 300%	
COc1ccc2c(c1)CN(C(=O)C(=O)O)CCS2 [Compound S36, reference compound]								increase in R-CEPIA1er fluorescence	103.4 ± 0.7%	no effect on NaV1.5 activity				1.0 (low, ref ) 10^–6 cm/s
